What was measured:
[1] = Confirmation of photobase generation: pH of aqueous solution before and after 365-nm irradiation; assay type: physicochemical; conditions: 1.00 g/L aqueous solution
Experimental: An aqueous solution having a concentration of 1.00 g/L was prepared from the aminimide compound A and pure water, and 50 ml of this was put into a transparent glass-made sample bottle having an inner diameter of 38 mm and a height of 58 mm, and with stirring with a stirrer while sealed up, the pH of the aqueous solution was measured with a pH meter, Horiba Seisakusho's D54. Further kept sealed up, the sample bottle was irradiated with 365-nm active energy rays on the side thereof at a lighting intensity of 100 mW/cm^2, using a spot UV irradiator, Hamamatsu Photonics' LC8, and the pH of the solution was measured after irradiation for specified seconds. The pH before irradiation with active energy rays was 6.28; and the pH after irradiation with active energy rays for 20 seconds was 9.78; the pH after irradiation for 30 seconds was 9.90; and the pH after irradiation for 50 seconds was 10.01.

SMILES: CC(O)C[N+](C)(C)[N-]C(=O)C(=O)c1ccccc1 (stereo not drawn) [Aminimide Compound A]
- pH before irradiation with active energy rays [1]: 6.28
- pH after irradiation with active energy rays for 20 seconds ([1]; 365 nm, 100 mW/cm^2, 20 seconds): 9.78
- pH after irradiation for 30 seconds ([1]; 365 nm, 100 mW/cm^2, 30 seconds): 9.90
- pH after irradiation for 50 seconds ([1]; 365 nm, 100 mW/cm^2, 50 seconds): 10.01

SMILES: COc1ccc(C(=O)C(=O)[N-][N+](C)(C)CC(C)O)cc1 (stereo not drawn) [Aminimide Compound B]
- melting point: 102 to 103 °C (dec.)

SMILES: CC(=O)OC(C)C[N+](C)(C)[N-]C(=O)C(=O)c1ccccc1 (stereo not drawn) [Aminimide Compound D]
- melting point: 100 to 101 °C (dec.)

From patent US8686059B2, “Base and radical generator, composition using same and method for curing same” (Three Bond Co., Ltd., priority 2009, dated 2014)
